Source: patent US20180369203A1, “METHODS OF TREATING CANCER BY ADMINISTERING A MEK INHIBITOR IN COMBINATION WITH A PROTEASOME INHIBITOR” (The Jackson Laboratory, priority 2015, published 2018)

Assays:
WM115 cells = experiment: Lys48 ubiquitin immunostaining of aggregates in melanoma cells; assay type: cell-based, human; conditions: 20 nM AZD6244, 100 nM Bortezomib, or both, 24 hr
Procedure: (§1) FIGS. 5A-Y show MEK and proteasome inhibition provoke protein aggregation and amyloidogenesis. (A-B) WM115 cells treated with 20 nM AZD6244, 100 nM Bortezomib, or both for 24 hr were stained with Lys48-specific ubiquitin antibodies. Arrowheads mark ubiquitin-positive aggregates. Scale bar: 10 μm. Amounts of aggregates per cell were quantitated using ImageJ (median, n≥100, ANOVA). (C-F) Following transfection with polyQ79 plasmids alone or with both polyQ79 and HSF1^S326D plasmids for one day, HEK293T cells were treated with inhibitors as described in (A-B). Cells were either analyzed for aggregate size or stained with 10 μM ThT. (G) Treated tumor cell lines were stained with 10 μM ThT. Geometric means were used to calculate fold changes in ThT fluorescence intensity and the log 2(FC) values were presented as a heat map. (H) HEK293T cells were transfected with LacZ or polyQ79 plasmid. Following treatments, AOs were quantitated by ELISA using A11 antibodies (mean±SD, n=3, ANOVA). (I) Intrinsic AOs were detected in human tumor cell lines (mean±SD, n=3, ANOVA). […] Amyloids were quantitated by ELISA (mean±SD, n=3, Student's t-test). […] AF formation was monitored by ThT binding (mean±SD, n=3, ANOVA). […] Amyloids were quantitated (mean±SD, n=3, Student's t-test). […] Viable cells were quantitated by CellTiter® blue (mean±SD, n=6, Student's t-test). […] Viable cells were quantitated (mean±SD, n=6, ANOVA). […]

amyloid oligomers (AOs) [1] = experiment: Amyloid oligomer ELISA (A11) in human tumor, immortalized and primary cells; assay type: cell-based; conditions: 20 nM AZD6244, 100 nM Bortezomib, or both, 24 hr
Procedure: FIGS. 5A-Y show MEK and proteasome inhibition provoke protein aggregation and amyloidogenesis. (A-B) WM115 cells treated with 20 nM AZD6244, 100 nM Bortezomib, or both for 24 hr were stained with Lys48-specific ubiquitin antibodies. Arrowheads mark ubiquitin-positive aggregates. Scale bar: 10 μm. Amounts of aggregates per cell were quantitated using ImageJ (median, n≥100, ANOVA). (C-F) Following transfection with polyQ79 plasmids alone or with both polyQ79 and HSF1^S326D plasmids for one day, HEK293T cells were treated with inhibitors as described in (A-B). Cells were either analyzed for aggregate size or stained with 10 μM ThT. (G) Treated tumor cell lines were stained with 10 μM ThT. Geometric means were used to calculate fold changes in ThT fluorescence intensity and the log 2(FC) values were presented as a heat map. (H) HEK293T cells were transfected with LacZ or polyQ79 plasmid. Following treatments, AOs were quantitated by ELISA using A11 antibodies (mean±SD, n=3, ANOVA). (I) Intrinsic AOs were detected in human tumor cell lines (mean±SD, n=3, ANOVA). […] Amyloids were quantitated by ELISA (mean±SD, n=3, Student's t-test). […] AF formation was monitored by ThT binding (mean±SD, n=3, ANOVA). […] Amyloids were quantitated (mean±SD, n=3, Student's t-test). […] Viable cells were quantitated by CellTiter® blue (mean±SD, n=6, Student's t-test). […] Viable cells were quantitated (mean±SD, n=6, ANOVA). Relative changes in viable cells after treatment were calculated by normalizing the values of AZD6244-treated cells against the values of DMSO-treated cells at each time point. (U)-(W) Following treatments with 20 nM AZD6244, 100 nM Bortezomib, or both for 24 hr, AOs were quantitated in primary MEFs and human cells (mean±SD, n=3, ANOVA). (X and Y) Cells were treated with 50 μM Q-VD-OPh overnight and AOs were quantitated (mean±SD, n=3, Student's t-test). […]
To quantitate soluble amyloid prefibrillar oligomers, 20 μg soluble cellular proteins diluted in PBS were incubated for each well in a 96-well ELISA plate at 4° C. overnight followed by blocking (5% non-fat milk in PBS-T) at RT for 1 hr. […]

amyloid oligomers (AOs) [2] = experiment: Amyloid oligomer ELISA (A11) in murine cells (primary MEFs, NIH3T3); assay type: cell-based, mouse; conditions: different concentrations of Bortezomib, 24 hrs
Procedure: as §1, with “(H) HEK293T cells were transfected with LacZ or polyQ79 plasmid.” left out
This figure is related to FIG. 5. […] (C) Quantitation of protein aggregate size. […]

CC(C)C[C@H](NC(=O)[C@H](Cc1ccccc1)NC(=O)c1cnccn1)B(O)O [Bortezomib, bortezomib]
ubiquitin-containing aggregates (punctate foci) (WM115 cells): bright fluorescent punctate foci emerged
AO levels in MCF10A cells (amyloid oligomers (AOs) [1]; immortalized human mammary epithelial cells): slight induction
AO levels in PHMC (amyloid oligomers (AOs) [1]; primary human mammary epithelial cells): no induction
AO levels in MCF7 cells (amyloid oligomers (AOs) [1]; tumorigenic mammary epithelial cells): marked AO induction
endogenous amyloid oligomers in NIH3T3 cells (amyloid oligomers (AOs) [2]): capable of inducing amyloidogenesis
